Measurements reported in the supplement of paper PMC6045584.
± gives the standard deviation of the averaged measurements.

Columns and labels:
[1] = compound: CCN(CC)CCCCNc1ncc2cc(-c3cc(OC)cc(OC)c3)c(NC(=O)NC(C)(C)C)nc2n1; experiment: surviving fraction relative to DMSO-only wells; higher = less growth inhibition; conditions: exposure time: 5 days
Procedure, shortened: (§1)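 Five days of continuous inhibitor exposure, at 0.5, 1, 5, 10, 50, 100, 500 and 1000 nM, followed a 24-hour period after log-phase tumour cell lines were seeded at 250–500 cells per well in 384-well plates. Surviving fraction was derived from CellTiter-Glo luminescence relative to the median of DMSO-only wells. Plates were read after 10 minutes at room temperature, and lines screened three times were kept only if replicate Pearson r >0.7 and median Z' >0.3.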

[2] = compound: COc1cc2c(cc1O)CC[C@@H]1[C@@H]2CC[C@]2(C)[C@@H](O)CC[C@@H]12 [2-METHOXYESTRADIOL]; experiment: as above; conditions: exposure time: 5 days
Procedure, shortened: as §1

Row | Test System | surviving fraction ([1]; 0.5 nM) | surviving fraction ([1]; 1 nM) | surviving fraction ([1]; 5 nM) | surviving fraction ([1]; 10 nM) | surviving fraction ([1]; 50 nM) | surviving fraction ([1]; 100 nM) | surviving fraction ([1]; 500 nM) | surviving fraction ([1]; 1000 nM) | surviving fraction ([2]; 0.5 nM) | surviving fraction ([2]; 1 nM) | surviving fraction ([2]; 5 nM) | surviving fraction ([2]; 10 nM) | surviving fraction ([2]; 50 nM) | surviving fraction ([2]; 100 nM) | surviving fraction ([2]; 500 nM) | surviving fraction ([2]; 1000 nM)
1 | NCIH441 LUNG | 1 ± 0.052 | 1.04 ± 0.052 | 1 ± 0.022 | 1.01 ± 0.09 | 1.04 ± 0.052 | 1.01 ± 0.059 | 1.02 ± 0.053 | 1.06 ± 0.051 | 1.1 ± 0.058 | 1.03 ± 0.073 | 1.08 ± 0.036 | 1.03 ± 0.065 | 1.03 ± 0.097 | 1.03 ± 0.084 | 0.922 ± 0.09 | 0.575 ± 0.093
2 | NOS1 BONE | 1.11 ± 0.046 | 1.19 ± 0.1 | 1.15 ± 0.094 | 1.08 ± 0.056 | 0.989 ± 0.16 | 0.965 ± 0.11 | 0.609 ± 0.046 | 0.37 ± 0.05 | 1.19 ± 0.077 | 1.15 ± 0.063 | 1.27 ± 0.18 | 1.28 ± 0.14 | 1.13 ± 0.23 | 1.22 ± 0.097 | 0.981 ± 0.055 | 0.438 ± 0.036
3 | NY BONE | 0.932 ± 0.031 | 0.942 ± 0.013 | 0.964 ± 0.015 | 1 ± 0.029 | 0.895 ± 0.019 | 0.701 ± 0.015 | 0.337 ± 0.019 | 0.31 ± 0.004 | 0.95 ± 0.026 | 0.952 ± 0.014 | 0.983 ± 0.021 | 0.994 ± 0.017 | 1.03 ± 0.018 | 1 ± 0.031 | 0.106 ± 0.0015 | 0.057 ± 0.0036
4 | OS25HAL BONE | 0.969 ± 0.0072 | 0.983 ± 0.023 | 0.973 ± 0.0036 | 1 ± 0.025 | 1 ± 0.0091 | 1 ± 0.013 | 0.979 ± 0.0085 | 1.03 ± 0.03 | 0.828 ± 0.2 | 0.94 ± 0.029 | 0.961 ± 0.021 | 0.945 ± 0.042 | 1 ± 0.086 | 1.05 ± 0.072 | 0.501 ± 0.092 | 0.169 ± 0.014
5 | OSHN BONE | 1 ± 0.016 | 1.01 ± 0.017 | 1.01 ± 0.024 | 1.03 ± 0.033 | 0.993 ± 0.023 | 1.01 ± 0.033 | 1.02 ± 0.035 | 1.04 ± 0.042 | 1.03 ± 0.012 | 1.046 ± 0.0025 | 1.05 ± 0.026 | 1.031 ± 0.0067 | 1.054 ± 0.0092 | 1.068 ± 0.007 | 1.04 ± 0.033 | 0.044 ± 0.0036
6 | PCI30 HEADNECK | 0.906 ± 0.074 | 0.969 ± 0.09 | 0.984 ± 0.11 | 1.08 ± 0.058 | 1.04 ± 0.054 | 1.1 ± 0.1 | 0.912 ± 0.011 | 0.995 ± 0.093 | 0.783 ± 0.016 | 0.857 ± 0.019 | 1.03 ± 0.039 | 0.985 ± 0.057 | 1.01 ± 0.078 | 0.982 ± 0.051 | 0.421 ± 0.048 | 0.216 ± 0.046
7 | RDES SOFT TISSUE | 1.2 ± 0.034 | 1.35 ± 0.094 | 1.25 ± 0.088 | 1.26 ± 0.11 | 1.13 ± 0.032 | 1.25 ± 0.16 | 1.08 ± 0.29 | 1.06 ± 0.1 | 1.26 ± 0.16 | 1.26 ± 0.086 | 1.15 ± 0.046 | 1.29 ± 0.11 | 1.29 ± 0.15 | 1.17 ± 0.14 | 1.13 ± 0.12 | 0.178 ± 0.034
8 | S68 BREAST | 0.948 ± 0.29 | 1.01 ± 0.22 | 1.285 ± 0.0036 | 0.836 ± 0.1 | 1.02 ± 0.06 | 1.11 ± 0.3 | 0.864 ± 0.18 | 0.81 ± 0.22 | 0.845 ± 0.17 | 0.812 ± 0.15 | 0.879 ± 0.13 | 1.16 ± 0.3 | 1.24 ± 0.23 | 0.985 ± 0.067 | 0.617 ± 0.036 | 0.325 ± 0.017
9 | SAOS2 BONE | 1.09 ± 0.035 | 1.195 ± 0.011 | 1.2 ± 0.077 | 1.21 ± 0.042 | 1.23 ± 0.043 | 1.19 ± 0.037 | 0.995 ± 0.051 | 0.906 ± 0.054 | 1.09 ± 0.099 | 1.16 ± 0.065 | 1.17 ± 0.019 | 1.17 ± 0.05 | 1.28 ± 0.21 | 1.22 ± 0.051 | 0.769 ± 0.076 | 0.272 ± 0.013
10 | SCC003 HEADNECK | 0.927 ± 0.046 | 1.02 ± 0.055 | 1.02 ± 0.092 | 1.01 ± 0.086 | 0.981 ± 0.037 | 1.11 ± 0.091 | 1.09 ± 0.13 | 0.988 ± 0.097 | 0.936 ± 0.064 | 0.88 ± 0.13 | 1.03 ± 0.045 | 0.976 ± 0.074 | 1.04 ± 0.043 | 1.11 ± 0.017 | 0.867 ± 0.15 | 0.734 ± 0.087
11 | SCC36 HEADNECK | 1.1 ± 0.082 | 1.03 ± 0.12 | 1.1 ± 0.15 | 1.19 ± 0.028 | 0.978 ± 0.086 | 1.04 ± 0.043 | 0.83 ± 0.039 | 0.692 ± 0.082 | 1.09 ± 0.053 | 1.03 ± 0.052 | 1.09 ± 0.083 | 1.04 ± 0.091 | 1.22 ± 0.065 | 1.14 ± 0.016 | 0.94 ± 0.096 | 0.251 ± 0.029
